Read-outs that look alike come from different tables or passages of the source.
How the values were obtained:
hNaDC3 = target: T1, hNaDC3 (Homo sapiens, UniProt Q8WWT9)
T1 sequence (Q8WWT9 1-602): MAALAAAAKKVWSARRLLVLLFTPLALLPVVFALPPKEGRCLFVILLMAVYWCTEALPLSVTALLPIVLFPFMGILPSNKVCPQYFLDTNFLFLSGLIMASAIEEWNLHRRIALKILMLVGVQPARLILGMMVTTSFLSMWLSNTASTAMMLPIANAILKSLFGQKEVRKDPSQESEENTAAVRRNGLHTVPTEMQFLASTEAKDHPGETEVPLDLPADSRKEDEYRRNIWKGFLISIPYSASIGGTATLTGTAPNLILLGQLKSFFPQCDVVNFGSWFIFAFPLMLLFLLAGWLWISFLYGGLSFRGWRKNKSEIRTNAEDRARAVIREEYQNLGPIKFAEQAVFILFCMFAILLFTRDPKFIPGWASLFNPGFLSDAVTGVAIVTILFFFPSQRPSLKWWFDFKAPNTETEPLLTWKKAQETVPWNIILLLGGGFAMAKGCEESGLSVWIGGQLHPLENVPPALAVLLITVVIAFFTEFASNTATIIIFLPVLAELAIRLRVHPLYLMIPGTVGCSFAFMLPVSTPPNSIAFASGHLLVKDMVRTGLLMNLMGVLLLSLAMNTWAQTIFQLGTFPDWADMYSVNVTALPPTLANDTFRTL

drIndy = drIndy (Drosophila melanogaster, UniProt Q9VVT2); details: for % Control of cDNA-specific [^3H]succinate uptake / cDNA-specific [^3H] succinate uptake: [3H]succinate 40 nM, inhibitor 2.5 mM; for cDNA-specific [^3H] succinate uptake: NaCl buffer pH 7.5; for Uptake in drIndy cDNA-transfected cells vs vector alone / Succinate uptake mediated by drIndy: succinate 40 nM
drIndy, sequence (Q9VVT2 19-590): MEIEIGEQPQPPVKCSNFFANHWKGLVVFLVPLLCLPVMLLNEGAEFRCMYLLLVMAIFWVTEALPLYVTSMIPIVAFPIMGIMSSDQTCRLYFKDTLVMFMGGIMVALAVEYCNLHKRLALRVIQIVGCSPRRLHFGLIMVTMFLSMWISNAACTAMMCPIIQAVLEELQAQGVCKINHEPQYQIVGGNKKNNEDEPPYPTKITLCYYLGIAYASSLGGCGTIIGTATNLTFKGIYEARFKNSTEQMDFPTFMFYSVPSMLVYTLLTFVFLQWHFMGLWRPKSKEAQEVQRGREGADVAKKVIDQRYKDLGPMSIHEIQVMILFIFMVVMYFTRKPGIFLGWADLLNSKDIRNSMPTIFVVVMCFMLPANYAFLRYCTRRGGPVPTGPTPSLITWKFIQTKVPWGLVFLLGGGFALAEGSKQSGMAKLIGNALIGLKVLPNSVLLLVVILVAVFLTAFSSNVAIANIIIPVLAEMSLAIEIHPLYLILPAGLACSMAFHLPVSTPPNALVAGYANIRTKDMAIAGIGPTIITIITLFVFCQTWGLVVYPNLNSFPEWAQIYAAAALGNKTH

zebrafish NaCT = zebrafish NaCT (Danio rerio, UniProt A0A2R8QQN0, K78Q); assay: Citrate uptake via zebrafish NaCT expressed in HRPE cells; assay type: cell-based
zebrafish NaCT, sequence (A0A2R8QQN0 2-582 K78Q): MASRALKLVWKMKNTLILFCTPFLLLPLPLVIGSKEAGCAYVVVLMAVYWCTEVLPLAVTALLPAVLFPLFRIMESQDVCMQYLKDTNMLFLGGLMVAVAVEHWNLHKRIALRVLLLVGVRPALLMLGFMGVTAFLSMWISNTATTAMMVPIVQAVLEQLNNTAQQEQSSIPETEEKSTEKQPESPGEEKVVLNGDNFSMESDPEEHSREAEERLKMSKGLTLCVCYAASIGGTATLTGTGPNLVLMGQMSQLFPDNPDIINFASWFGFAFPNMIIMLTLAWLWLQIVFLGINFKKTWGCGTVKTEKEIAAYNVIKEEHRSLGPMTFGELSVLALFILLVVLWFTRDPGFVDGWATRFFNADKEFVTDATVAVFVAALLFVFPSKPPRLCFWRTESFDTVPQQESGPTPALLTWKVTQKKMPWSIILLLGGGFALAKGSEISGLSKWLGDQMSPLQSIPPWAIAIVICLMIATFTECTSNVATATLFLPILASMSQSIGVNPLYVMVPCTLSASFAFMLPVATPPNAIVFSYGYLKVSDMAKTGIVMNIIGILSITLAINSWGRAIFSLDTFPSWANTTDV

rat NaCT [1] = target: T2, rat NaCT (Rattus norvegicus, UniProt Q8CJ44); assay: Rat NaCT in X. laevis oocytes, voltage clamp and charge-to-substrate ratio; assay type: cell-based; details: for Charge-to-substrate ratio: 50 μM substrate, −50 mV, 10 min
T2 sequence (Q8CJ44 1-572): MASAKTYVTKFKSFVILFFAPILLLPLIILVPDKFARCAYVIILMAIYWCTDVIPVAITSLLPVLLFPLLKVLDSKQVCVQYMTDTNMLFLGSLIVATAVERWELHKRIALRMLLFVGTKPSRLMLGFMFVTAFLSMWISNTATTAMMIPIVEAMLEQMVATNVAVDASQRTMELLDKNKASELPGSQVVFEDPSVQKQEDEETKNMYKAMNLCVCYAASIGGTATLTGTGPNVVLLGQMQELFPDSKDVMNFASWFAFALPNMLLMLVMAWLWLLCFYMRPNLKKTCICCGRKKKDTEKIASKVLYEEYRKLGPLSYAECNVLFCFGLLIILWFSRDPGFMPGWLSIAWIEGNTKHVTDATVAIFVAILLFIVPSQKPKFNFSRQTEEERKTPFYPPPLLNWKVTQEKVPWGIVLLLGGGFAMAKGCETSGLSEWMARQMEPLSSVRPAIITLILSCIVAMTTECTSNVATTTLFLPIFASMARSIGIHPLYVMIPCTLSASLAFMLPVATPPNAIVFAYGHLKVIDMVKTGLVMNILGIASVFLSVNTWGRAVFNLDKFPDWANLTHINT

ceNaCT = target: T3, ceNaCT (Caenorhabditis elegans, UniProt P32739, I91S/L182M); assay: Uptake via ceNaCT expressed in HRPE cells; details: for Competition with [^14C]citrate for ceNaCT-mediated uptake: competitor 2.5 mM, [14C]citrate 15 μM
T3 sequence (P32739 1-551 I91S/L182M): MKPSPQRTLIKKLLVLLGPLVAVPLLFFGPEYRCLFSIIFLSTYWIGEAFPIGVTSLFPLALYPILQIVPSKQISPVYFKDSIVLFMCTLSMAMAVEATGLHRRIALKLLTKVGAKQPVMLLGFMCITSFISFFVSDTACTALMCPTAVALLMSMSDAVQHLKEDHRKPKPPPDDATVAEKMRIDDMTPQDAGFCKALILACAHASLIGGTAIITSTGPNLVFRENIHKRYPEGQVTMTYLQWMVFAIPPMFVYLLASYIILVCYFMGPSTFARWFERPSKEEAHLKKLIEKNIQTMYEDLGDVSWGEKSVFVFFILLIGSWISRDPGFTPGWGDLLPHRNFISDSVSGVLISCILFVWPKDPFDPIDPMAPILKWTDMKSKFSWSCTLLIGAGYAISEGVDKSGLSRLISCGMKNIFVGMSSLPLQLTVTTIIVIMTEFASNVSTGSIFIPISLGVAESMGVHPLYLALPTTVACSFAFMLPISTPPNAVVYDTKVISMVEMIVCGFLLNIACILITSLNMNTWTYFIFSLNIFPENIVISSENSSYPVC

mouse NaCT = target: T4, mouse NaCT (Mus musculus, UniProt Q67BT3); assay: Transport via mouse NaCT expressed in HRPE cells; assay type: cell-based; details: for [^3H]-Succinate transport (NaCT-specific) / [^3H]-Succinate transport, %: [3H]-succinate 0.1 μM; for [^3H]-Succinate transport (NaCT-specific) / [^3H]-Succinate transport, % / [^14C]-Citrate transport (NaCT-specific) / [^14C]-Citrate transport, %: substrate analog 2 mM; for [^3H]-Succinate transport, % / [^14C]-Citrate transport, %: control = 100; for [^14C]-Citrate transport (NaCT-specific) / [^14C]-Citrate transport, %: [14C]-citrate 10 μM
T4 sequence (Q67BT3 1-572): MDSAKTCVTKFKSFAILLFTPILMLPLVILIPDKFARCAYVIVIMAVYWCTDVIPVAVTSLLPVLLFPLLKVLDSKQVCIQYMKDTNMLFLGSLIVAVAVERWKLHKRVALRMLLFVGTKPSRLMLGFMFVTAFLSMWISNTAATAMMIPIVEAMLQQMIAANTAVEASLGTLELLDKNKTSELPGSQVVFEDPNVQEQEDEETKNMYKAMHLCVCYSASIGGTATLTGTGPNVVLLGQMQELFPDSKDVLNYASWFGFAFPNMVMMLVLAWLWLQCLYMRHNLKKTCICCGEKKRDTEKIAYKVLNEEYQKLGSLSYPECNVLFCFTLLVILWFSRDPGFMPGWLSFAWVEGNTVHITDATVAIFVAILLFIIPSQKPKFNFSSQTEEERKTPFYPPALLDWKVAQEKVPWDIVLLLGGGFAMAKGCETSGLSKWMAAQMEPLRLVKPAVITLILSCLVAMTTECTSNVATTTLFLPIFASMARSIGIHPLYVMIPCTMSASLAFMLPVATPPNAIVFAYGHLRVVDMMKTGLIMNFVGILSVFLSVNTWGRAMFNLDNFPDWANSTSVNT

rat NaCT [2] = target: T2, rat NaCT; assay: Uptake via rat NaCT expressed in HRPE cells; assay type: cell-based; details: for [^14C]Citrate uptake (cDNA-specific) / [^14C]Citrate uptake, %: [14C]citrate 14 μM, unlabeled compound 2.5 mM; for [^14C]Citrate uptake, %: none = 100; for Uptake in rat NaCT cDNA-transfected cells vs vector alone: succinate 80 nM, pyruvate 135 μM, citrate 35 μM, Na+ gradient
[3] = presence of Na+, citrate 35 μM, pyruvate 135 μM

SMILES | % Control of cDNA-specific [^3H]succinate uptake (drIndy) [%] | cDNA-specific [^3H] succinate uptake (drIndy) [fmol/106 cells per min] | Uptake in drIndy cDNA-transfected cells vs vector alone (drIndy; [3]) | IC50 (zebrafish NaCT) [µM] | Charge-to-substrate ratio (rat NaCT [1]) | Competition with [^14C]citrate for ceNaCT-mediated uptake (ceNaCT) | Vmax for transport via ceNaCT (ceNaCT; pH 7.5) [pmol/10^6 cells/min] | Maximal velocity (Vmax) (mouse NaCT) [pmol/10^6 cells/min] | Michaelis-Menten constant (Kt) for transport via mouse NaCT (mouse NaCT) [µM] | [^3H]-Succinate transport (NaCT-specific) (mouse NaCT) [pmol/10^6 cells/min] | [^3H]-Succinate transport, % (mouse NaCT) [%] | [^14C]-Citrate transport (NaCT-specific) (mouse NaCT) [pmol/10^6 cells/min] | [^14C]-Citrate transport, % (mouse NaCT) [%] | Transport in mouse NaCT cDNA-transfected cells vs vector alone (mouse NaCT; succinate 50 nM, citrate 20 μM) [fold] | IC50 (rat NaCT [2]) [µM] | Ki (rat NaCT [2]) [µM] | [^14C]Citrate uptake (cDNA-specific) (rat NaCT [2]) [Pmol/10^6 cells/min] | [^14C]Citrate uptake, % (rat NaCT [2]) [%] | Uptake in rat NaCT cDNA-transfected cells vs vector alone (rat NaCT [2]) | further results
O=C(O)CC(O)(CC(=O)O)C(=O)O [Citrate] | 13 | 18.6 ± 3.0 | approximately 30 fold | 30 ± 4 | 1 | potent inhibitor | 270±13 | 118±6 | 22 ± 2 | 0.004 ± 0.001 | 3 | 0.7 ± 0.1 | 2 | 20.2 | 28 ± 4 | 16 ± 2 | 1.5 ± 0.1 | 1 | approximately 90 fold | Lower affinity of hNaDC3 than drIndy for citrate (hNaDC3): 20 fold; Km (zebrafish NaCT; read-out: Michaelis constant for citrate uptake, hrpe cells, 30 min): 40 ± 4 µM; Currents in rat NaCT oocytes compared to mouse NaCT (rat NaCT [1]; 0.5 mM citrate): 3 fold; Citrate-induced current (rat NaCT [1]; 0.5 mM citrate, three oocytes): 87±8 nA; Uptake in ceNaCT-expressing cells vs vector-transfected control cells (ceNaCT; [14C]citrate 10 μM, Na+, pH 7.5): approximately 45 fold; Uptake of [^14C]citrate in cells expressing ceNaCT (ceNaCT; citrate 10 μM, Na+, pH 7.5): 61±5 pmol/10^6 Cells/min; Transport of citrate in cDNA-transfected cells (mouse NaCT; citrate 20 μM): 48.4±1.0 pmol/10^6 cells/min; Kt (Michaelis-Menten constant) for citrate uptake via rat NaCT (rat NaCT [2]): 18 ± 4 µM
O=C(O)CCC(=O)O [Succinate, succinate] | 6 | 4.6 ± 0.4 | 20 fold | 51 ± 9 | 2 | inhibited markedly | 210±8 | 80±5 | 33 ± 4 | 0.007 ± 0.003 | 5 | 0.1 ± 0.1 | 1 | 7.8 | 172 ± 24 | 98 ± 14 | 5.7 ± 0.2 | 5 | about 7 fold | Uptake in hNaDC3 cDNA-transfected cells vs vector (hNaDC3; succinate 40 nM, presence of Na+): 200 fold; Uptake in drIndy cDNA-transfected cells vs vector alone (drIndy; absence of Na+): 15 fold; Km (drIndy; read-out: Michaelis-Menten constant (Km) for transport via drIndy, presence of Na+): 40 ± 4 µM; Succinate uptake mediated by drIndy (drIndy; pH 5): 52±2 fmol/10^6 cells per minute; Succinate uptake mediated by drIndy (drIndy; pH 8): 127±5 fmol/10^6 cells per minute; Km (ceNaCT; read-out: Michaelis-Menten constant (Kt) for transport via ceNaCT, pH 7.5, 30 min): 88 ± 13 µM; Transport of succinate in cDNA-transfected cells (mouse NaCT; succinate 50 nM): 42.7±4.6 fmol/10^6 cells/min; Affinity of rat NaCT for succinate lower than for citrate (rat NaCT [2]): 6 fold; Succinate uptake at physiological concentrations (rat NaCT [2]; medium with 135 μM citrate and 40 μM succinate): 0.005±0.001 nmol/10^6 cells/minute

Source: patent US20050095240A1, “NaCT as a target for lifespan expansion and weight reduction” (Medical College of Georgia Research, priority 2002, published 2005)
